From patent US20220273659A1, “HETEROCYCLIC COMPOUNDS AS KINASE INHIBITORS” (NUVATION BIO INC., priority 2019, published 2022)

Tests used:
[1] = tested on: DU4475 breast carcinoma cells; test: Cancer cell proliferation assay, single agent (cell viability); assay type: cell-based; settings: Homo sapiens, DU-4475; Table 4; Rb negative; treatment 144 Hr with medium change at 72 Hr; Cell Titer-Glo or resazurin
Experimental: (§1) The effects of test compounds were studied in three breast cancer cell lines of different subtype. The cancer cells (Table 3) were harvested during the logarithmic growth period and counted. Cell concentrations were adjusted to the appropriate number with respective medium and 90 μL cell suspensions were added to 96-well plates. After cells were seeded, the plates were shaken gently to distribute cells evenly and incubated at 37° C., 5% CO2 on day 1.
(§2) Cells were treated with test compounds at 7 to 9 concentrations within a desired concentration range (e.g. 1.1 nM-10 μM) on day 2 by series diluting the test compound stock solution (10 mM in DMSO) with culture medium. Treatment duration was 24 Hr for BT-549 cells and 144 Hr (with a medium change at 72 Hr) for MCF-7 and DU4475 cells. Cell viability was assessed by Cell Titer-Glo® as recommended by Promega (Cat. No.: G7572), or by resazurin assay (Sigma Aldrich, Cat. No.: R7017) post treatment.
(§3) Cell viability data were plotted using GraphPad Prism (GraphPad Software, Inc., San Diego, Calif.). In addition, a nonlinear regression model with a sigmoidal dose response and variable slope within GraphPad Prism was used to calculate the IC50 value of individual test compounds.

[2] = tested on: MCF-7 breast adenocarcinoma cells; test: as above; assay type: cell-based; settings: Homo sapiens, MCF7, Table 4; Rb positive; treatment 144 Hr with medium change at 72 Hr; Cell Titer-Glo or resazurin
Experimental: as §1, §2, §3

CDK6 = molecular target: T1, CDK6 (Homo sapiens, UniProt Q00534); test: In vitro kinase inhibition IC50, luminescence (ADP Glo), retinoblastoma substrate; assay type: biochemical; settings: read-out: CDK6/D1 IC50
T1 construct: purchased Invitrogen PR8422B
Experimental: (§4) IC50 values of compounds against CDK4 and CDK6 were determined by luminescence using retinoblastoma as substrate. Kinase assays were performed in kinase buffer (#PV6135, Invitrogen Life Technologies, Grand Island, N.Y.) where total reaction volume was […] in 96-well half area white plates (#3693, Costar). One microliter of 25×test compounds at specific concentrations (e.g., final concentration range: 0.1 nM-200 nM) was mixed with 10 μL of 2.5×kinase (5 nM, CDK4 #PR8064A and CDK6 #PR8422B, Invitrogen) solution and 14 μL of 4× mixed solution with retinoblastoma (1 μM, #12-439, EMD Millipore, Hayward, Calif.) and ATP (25 μM, #V7038, Promega, Madison, Wis.). The plates were covered and incubated for 2H at room temperature. At the end of incubation, 25 μL of stop solution—ADP Glo reagent (#V7002, Promega) was added. After incubation for 45 min at room temperature, 50 μL of detection reagent (##V7002, Promega) was added. Readings were taken at 15 min and 45 min incubation after detection reagent was added in a Synergy Neo Plate reader (BioTek, Winooski, Vt.) at single excitation of 340 nm and Dual emission at 495 nm and 520 nm respectively. The following equations were used in the CDK4 and CDK6 assay data analysis. Percent inhibition (100-% activity) was fitted to the “four-parameter logistic model” in XLfit for determination of IC50 values.
(§5) Percent conversion of enzyme=100−{(RLUNo Drug−No enzyme*100)/RLUNo drug+Enzyme} Equation 1:
(§6) Percent conversion at each data point=100−{(RLUAverage(Drug+enzyme)*100)!RLUNo drug+Enzyme} Equation 2:
(§7) Percent Inhibition=100*(% Conversioneach data point/% ConversionEnzyme) Equation 3: […]

CDK4 = molecular target: T2, CDK4 (Homo sapiens, UniProt P11802); test: as above; assay type: biochemical; settings: read-out: CDK4/D1 IC50
T2 construct: purchased Invitrogen PR8064A
Experimental: as §4, §5, §6, §7

T2 sequence (P11802 whole entry): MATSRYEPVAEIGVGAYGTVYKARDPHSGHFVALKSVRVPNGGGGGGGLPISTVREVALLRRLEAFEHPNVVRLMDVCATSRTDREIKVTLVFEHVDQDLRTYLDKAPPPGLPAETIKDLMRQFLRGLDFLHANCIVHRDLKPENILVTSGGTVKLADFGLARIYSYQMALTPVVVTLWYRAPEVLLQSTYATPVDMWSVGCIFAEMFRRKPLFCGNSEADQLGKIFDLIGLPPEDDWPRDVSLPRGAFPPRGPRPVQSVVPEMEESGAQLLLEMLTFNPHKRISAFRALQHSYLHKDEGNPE
T2 sequence (P24385 whole entry partner): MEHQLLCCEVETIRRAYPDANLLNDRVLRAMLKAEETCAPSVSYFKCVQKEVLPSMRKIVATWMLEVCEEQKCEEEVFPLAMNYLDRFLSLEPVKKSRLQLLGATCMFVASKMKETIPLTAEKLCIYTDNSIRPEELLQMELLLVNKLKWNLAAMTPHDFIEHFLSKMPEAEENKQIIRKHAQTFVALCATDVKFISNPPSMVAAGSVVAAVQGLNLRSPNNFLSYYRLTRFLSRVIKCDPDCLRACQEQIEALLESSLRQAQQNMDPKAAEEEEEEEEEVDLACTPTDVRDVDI
T1 sequence (Q00534 whole entry): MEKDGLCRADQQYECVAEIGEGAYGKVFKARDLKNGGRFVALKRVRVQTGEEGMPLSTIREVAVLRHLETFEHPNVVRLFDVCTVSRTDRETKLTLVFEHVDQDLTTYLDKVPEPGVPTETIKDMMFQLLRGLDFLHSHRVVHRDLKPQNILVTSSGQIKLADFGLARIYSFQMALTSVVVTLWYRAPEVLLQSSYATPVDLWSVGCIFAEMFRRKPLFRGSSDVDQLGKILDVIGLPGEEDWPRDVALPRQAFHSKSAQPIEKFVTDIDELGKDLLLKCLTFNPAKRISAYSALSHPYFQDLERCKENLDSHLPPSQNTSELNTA
T1 sequence (P24385 whole entry partner): as the sequence (P24385 whole entry partner) above

SMILES	IC50 [1] [nM]	IC50 [2] [nM]	IC50 (CDK6) [nM]	IC50 (CDK4) [nM]
CC(=O)N1CCc2cc(Nc3ncc4cc(C#N)c(=O)n(C5CCCC5)c4n3)ccc2C1 [Compound No. 71, 2-((2-acetyl-1,2,3,4-tetrahydroisoquinolin-6-yl)amino)-8-cyclopentyl-7-oxo-7,8-dihydropyrido[2,3-d]pyrimidine-6-carbonitrile]	1650	793	5	–
CN(C)CCN1CCc2nc(Nc3ncc4cc(C#N)c(=O)n(C5CCCC5)c4n3)ccc2C1 [Compound No. 64, 8-cyclopentyl-2-((6-(2-(dimethylamino)ethyl)-5,6,7,8-tetrahydro-1,6-naphthyridin-2-yl)amino)-7-oxo-7,8-dihydropyrido[2,3-d]pyrimidine-6-carbonitrile]	4740	3590	32	> 200
N#Cc1cc2cnc(Nc3ccc4c(c3)CNCCC4)nc2n(C2CCCC2)c1=O [Compound No. 78, 8-cyclopentyl-7-oxo-2-((2,3,4,5-tetrahydro-1H-benzo[c]azepin-8-yl)amino)-7,8-dihydropyrido[2,3-d]pyrimidine-6-carbonitrile]	1670	751	15	33
N#Cc1cc2cnc(Nc3cc4c(cc3F)CNCC4)nc2n(C2CCCC2)c1=O [Compound No. 84, 8-cyclopentyl-2-((7-fluoro-1,2,3,4-tetrahydroisoquinolin-6-yl)amino)-7-oxo-7,8-dihydropyrido[2,3-d]pyrimidine-6-carbonitrile]	2520	2000	116	> 200
CN(C)CCN1CCC(n2ccc(Nc3ncc4cc(C#N)c(=O)n(C5CCCC5)c4n3)cc2=O)CC1 [Compound No. 73, 8-cyclopentyl-2-((1-(1-(2-(dimethylamino)ethyl)piperidin-4-yl)-2-oxo-1,2-dihydropyridin-4-yl)amino)-7-oxo-7,8-dihydropyrido[2,3-d]pyrimidine-6-carbonitrile]	> 8430	1590	28	15
CN(C)CCN1CCc2ccc(Nc3ncc4cc(C#N)c(=O)n(C5CCCC5)c4n3)cc2C1=O [Compound No. 68, 8-cyclopentyl-2-((2-(2-(dimethylamino)ethyl)-1-oxo-1,2,3,4-tetrahydroisoquinolin-7-yl)amino)-7-oxo-7,8-dihydropyrido[2,3-d]pyrimidine-6-carbonitrile]	> 10000	> 10000	> 200	> 200
CC1(C)CCCC1n1c(=O)c(C#N)cc2cnc(NC3CCN(S(C)(=O)=O)CC3)nc21 (stereo not drawn) [Compound No. 388, 8-(2,2-dimethylcyclopentyl)-2-(1-(methylsulfonyl)piperidin-4-ylamino)-7-oxo-7,8-dihydropyrido[2,3-d]pyrimidine-6-carbonitrile]	> 5260	–	9	11
CN(C)CCN1CCC(Nc2ncc3cc(C#N)c(=O)n(C4CCCC4)c3n2)CC1 [Compound No. 67, 8-cyclopentyl-2-((1-(2-(dimethylamino)ethyl)piperidin-4-yl)amino)-7-oxo-7,8-dihydropyrido[2,3-d]pyrimidine-6-carbonitrile]	4450	1640	> 200	> 140
N#Cc1cc2cnc(Nc3ccc4c(c3)C(=O)NCCC4)nc2n(C2CCCC2)c1=O [Compound No. 79, 8-cyclopentyl-7-oxo-2-((1-oxo-2,3,4,5-tetrahydro-1H-benzo[c]azepin-8-yl)amino)-7,8-dihydropyrido [2,3-d]pyrimidine-6-carbonitrile]	4060	1840	38	> 147
Cc1c(C#N)c(=O)n(C2CCCC2)c2nc(NC3CCN(S(C)(=O)=O)CC3)ncc12 [Compound No. 389, 8-cyclopentyl-5-methyl-2-(1-(methylsulfonyl)piperidin-4-ylamino)-7-oxo-7,8-dihydropyrido[2,3-d]pyrimidine-6-carbonitrile]	4220	–	11	7.5
N#Cc1cc2cnc(Nc3cnc4c(c3)CNCC4)nc2n(C2CCCC2)c1=O [Compound No. 77, 8-cyclopentyl-7-oxo-2-((5,6,7,8-tetrahydro-1,6-naphthyridin-3-yl)amino)-7,8-dihydropyrido[2,3-d]pyrimidine-6-carbonitrile]	4560	452	43	132

The next molecules have a lower IC50 [1] than those just listed; values first:

IC50 [1] [nM]	IC50 [2] [nM]	IC50 (CDK6) [nM]	IC50 (CDK4) [nM]	SMILES
725	723	> 190	> 200	N#Cc1cc2cnc(Nc3ccc4c(c3)CCNC4)nc2n(CC2CC2)c1=O [Compound No. 85, 8-(cyclopropylmethyl)-7-oxo-2-((1,2,3,4-tetrahydroisoquinolin-6-yl)amino)-7,8-dihydropyrido[2,3-d]pyrimidine-6-carbonitrile]
250	305	131	> 200	N#Cc1cc2cnc(Nc3ccc4c(c3)CCCNC4=O)nc2n(C2CCCC2)c1=O [Compound No. 82, 8-cyclopentyl-7-oxo-2-((1-oxo-2,3,4,5-tetrahydro-1H-benzo[c]azepin-7-yl)amino)-7,8-dihydropyrido[2,3-d]pyrimidine-6-carbonitrile]
1260	594	4	14	CN(C)CCN1CCc2ccc(Nc3ncc4cc(C#N)c(=O)n(C5CCCC5)c4n3)cc2C1 [Compound No. 62, 8-cyclopentyl-2-((2-(2-(dimethylamino)ethyl)-1,2,3,4-tetrahydroisoquinolin-7-yl)amino)-7-oxo-7,8-dihydropyrido[2,3-d]pyrimidine-6-carbonitrile]
820	1060	24	84	N#Cc1cc2cnc(Nc3ccc4c(c3)CCCC(=O)N4)nc2n(C2CCCC2)c1=O [Compound No. 83, 8-cyclopentyl-7-oxo-2-((2-oxo-2,3,4,5-tetrahydro-1H-benzo[b]azepin-7-yl)amino)-7,8-dihydropyrido[2,3-d]pyrimidine-6-carbonitrile]
985	330	1	–	CN(C)CCCN1CCc2cc(Nc3ncc4cc(C#N)c(=O)n(C5CCCC5)c4n3)ccc2C1 [Compound No. 72, 8-cyclopentyl-2-((2-(3-(dimethylamino)propyl)-1,2,3,4-tetrahydroisoquinolin-6-yl)amino)-7-oxo-7,8-dihydropyrido[2,3-d]pyrimidine-6-carbonitrile]
1050	598	5.5	7	COCCN1CCc2cc(Nc3ncc4cc(C#N)c(=O)n(C5CCCC5)c4n3)ccc2C1 [Compound No. 75, 8-cyclopentyl-2-((2-(2-methoxyethyl)-1,2,3,4-tetrahydroisoquinolin-6-yl)amino)-7-oxo-7,8-dihydropyrido[2,3-d]pyrimidine-6-carbonitrile]
660	793	6	9.5	CN(C)CCN1Cc2cc(Nc3ncc4cc(C#N)c(=O)n(C5CCCC5)c4n3)ccc2C(C)(C)C1 [Compound No. 76, 8-cyclopentyl-2-((2-(2-(dimethylamino)ethyl)-4,4-dimethyl-1,2,3,4-tetrahydroisoquinolin-7-yl)amino)-7-oxo-7,8-dihydropyrido[2,3-d]pyrimidine-6-carbonitrile]
585	641	137	> 200	CC(C)Cn1c(=O)c(C#N)cc2cnc(Nc3ccc4c(c3)CCNC4)nc21 [Compound No. 81, 8-isobutyl-7-oxo-2-((1,2,3,4-tetrahydroisoquinolin-6-yl)amino)-7,8-dihydropyrido[2,3-d]pyrimidine-6-carbonitrile]
